Target: T1, GLUT1 (Homo sapiens, UniProt P11166)
T1 sequence (P11166 1-492): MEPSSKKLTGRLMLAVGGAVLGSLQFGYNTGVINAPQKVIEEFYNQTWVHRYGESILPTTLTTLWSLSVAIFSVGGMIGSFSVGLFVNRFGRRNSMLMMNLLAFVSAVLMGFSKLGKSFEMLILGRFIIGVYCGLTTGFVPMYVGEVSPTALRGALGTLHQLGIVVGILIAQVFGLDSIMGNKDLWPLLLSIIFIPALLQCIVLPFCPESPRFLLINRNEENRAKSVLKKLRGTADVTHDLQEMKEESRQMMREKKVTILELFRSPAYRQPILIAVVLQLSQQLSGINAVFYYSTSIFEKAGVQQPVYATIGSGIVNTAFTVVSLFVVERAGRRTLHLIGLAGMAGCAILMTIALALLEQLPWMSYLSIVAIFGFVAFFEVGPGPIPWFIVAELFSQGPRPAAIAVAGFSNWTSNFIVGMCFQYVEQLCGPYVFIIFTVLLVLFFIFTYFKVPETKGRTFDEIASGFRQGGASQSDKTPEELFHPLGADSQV
Experiment: Indirect measurement of GLUT1 activity by quantification of intracellular ATP levels (glucose induced ATP increase)
Assay type: cell-based
Set-up: endogenous in cells; host or cells: DLD1 or CHO-K1
Settings: read-out: IC50 regarding glucose induced ATP increase (GLUT1 inhibition)
How it was run: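 Intracellular ATP was measured by CellTiter-Glo luminescence as an indirect readout of transport: glucose-driven for GLUT1, fructose-driven for GLUT2. DLD1 or CHO-K1 cells were used alongside an oxidative phosphorylation inhibitor. Beforehand, cells were held overnight in glucose-free 1% FCS medium to deplete ATP.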

Structure (SMILES)	IC50 [nM]
Cc1nn(Cc2ccc(C(F)(F)F)cc2)c(C)c1NC(=O)c1cc(C(F)(F)F)nc2ccc(Br)cc12 [Example 1302]	11100
COc1cc(C(=O)Nc2c(C)nn(Cc3cccc(C(F)(F)F)c3)c2C)c2ccccc2n1 [Example 1303]	11100
COc1cc(C(=O)Nc2c(C)nn(Cc3cc(F)ccc3F)c2C)c2ccccc2n1 [Example 1304]	11100
COc1cc(C(=O)Nc2c(C)nn(Cc3ccccc3C(F)(F)F)c2C)c2ccccc2n1 [Example 1305]	11100
Cc1nn(Cc2cccc(C(F)(F)F)c2)c(C)c1NC(=O)c1cc(C(F)(F)F)nc2c(Cl)cc(Cl)cc12 [Example 1306]	11100
Cc1nn(Cc2ccc(F)cc2)c(C)c1NC(=O)c1cc(C(F)(F)F)nc2c(C(F)(F)F)cccc12 [Example 1307]	14300
Cc1cc(C(=O)Nc2c(C)nn(Cc3ccc(F)cc3)c2C)c2cccc(C#N)c2n1 [Example 1308]	16900
Cc1cc(C(=O)Nc2c(C)nn(Cc3ccc(F)cc3)c2C)c2ccc(C#N)cc2n1 [Example 1309]	17500
COc1ccc(CCn2nc(C)c(NC(=O)c3cc(OC)nc4ccccc34)c2C)cc1 [Example 1341]	297
Cc1nn(CCOc2ccc(C#N)cc2)c(C)c1NC(=O)c1cc(C(F)(F)F)nc2ccc(Br)cc12 [Example 1344]	323
Cc1nn(CC2CNC(=O)O2)c(C)c1NC(=O)c1cc(C(N)=O)nc2ccccc12 (stereo not drawn) [Example 1347]	3950
CC(C)c1nn(Cc2ccc(F)cc2)c(C(C)C)c1NC(=O)c1cc(C(F)(F)F)nc2ccc(Br)cc12 [Example 1355]	> 13000
Cc1ccc2nc(C)cc(C(=O)Nc3c(C(C)C)nn(Cc4ccc(F)cc4)c3C(C)C)c2c1 [Example 1356]	> 13000
CC(C)c1nn(Cc2ccc(F)cc2)c(C(C)C)c1NC(=O)c1cc(C(F)(F)F)nc2cc(F)c(F)cc12 [Example 1357]	> 13000
Cc1c(NC(=O)c2cc(C(N)=O)nc3ccccc23)c(C(F)(F)F)nn1Cc1ccncc1 [Example 1367]	275
Cc1c(NC(=O)c2cc(C(N)=O)nc3ccccc23)c(C(F)(F)F)nn1Cc1ccc(C(C)(C)C)cc1 [Example 1370]	1090
COc1cc(C(=O)Nc2c(C(F)(F)F)nn(CCc3ccc(F)cc3)c2C)c2ccccc2n1 [Example 1372]	950
Cc1c(NC(=O)c2cc(C(F)(F)F)nc3ccc(Br)cc23)c(C(F)(F)F)nn1CCc1ccc(F)cc1 [Example 1373]	1990
Cc1c(NC(=O)c2cc(C(N)=O)nc3ccc(S(N)(=O)=O)cc23)c(C(F)(F)F)nn1Cc1ccc(C#N)cc1 [Example 1382]	5370
CCc1nn(Cc2ccc(F)cc2)c(CC)c1NC(=O)c1cc(C(N)=O)nc2c(F)cccc12 [Example 1384]	425
CCc1nn(Cc2ccc(F)cc2)c(CC)c1NC(=O)c1cc(C(F)(F)F)nc2ccc(Br)cc12 [Example 1388]	1530
Cc1c(NC(=O)c2cc(C(N)=O)nc3ccc(S(C)(=O)=O)cc23)c(C(F)(F)F)nn1Cc1ccc(C#N)cc1 [Example 1389]	1930
COC(=O)c1cc(C(=O)Nc2c(C)nn(Cc3ccc(C#N)cc3)c2C)c2ccc(OC)cc2n1 [Example 1390]	229
CCc1nn(Cc2ccc(F)cc2)c(CC)c1NC(=O)c1cc(C(N)=O)nc2cc(Cl)ccc12 [Example 1391]	362
Cc1c(NC(=O)c2cc(C(=O)NCCN(C)C)nc3cc(F)ccc23)c(C(F)(F)F)nn1Cc1ccc(C#N)cc1 [Example 1400]	2610
Cc1nn(Cc2ccc(C#N)cc2)c(C)c1NC(=O)c1cc(C(=O)NCCN(C)C)nc2cc(F)ccc12 [Example 1401]	1240
Cc1nn(Cc2ccc(C#N)cc2)c(C)c1NC(=O)c1cc(C(=O)NCCN2CCOCC2)nc2cc(F)ccc12 [Example 1402]	238
Cc1c(NC(=O)c2cc(C(=O)NCCO)nc3cc(F)ccc23)c(C(F)(F)F)nn1Cc1ccc(C#N)cc1 [Example 1403]	245

Now those with a lower IC50, led by results:

IC50 [nM]	Structure (SMILES)
188	COc1cc(C(=O)Nc2c(C)nn(CCOc3ccc(C#N)cc3)c2C)c2ccccc2n1 [Example 1348]
167	Cc1c(NC(=O)c2cc(C(F)(F)F)nc3ccc(Br)cc23)c(C(F)(F)F)nn1Cc1ccncc1 [Example 1365]
144	Cc1c(NC(=O)c2cc(C(N)=O)nc3ccccc23)c(C(F)(F)F)nn1CCc1ccc(F)cc1 [Example 1371]
143	Cc1nn(Cc2ccc(C(C)(C)C)cc2)c(C)c1NC(=O)c1cc(C(N)=O)nc2ccccc12 [Example 1369]
140	Cc1nn(Cc2ccc(C(C)(C)C)cc2)c(C)c1NC(=O)c1cc(C(N)=O)nc2cc(F)ccc12 [Example 1383]
134	Cc1nn(Cc2cscn2)c(C)c1NC(=O)c1cc(C(F)(F)F)nc2ccc(Br)cc12 [Example 1351]
132	Cc1nn(Cc2ccc(C#N)cc2)c(C)c1NC(=O)c1cc(C(=O)NCCO)nc2cc(F)ccc12 [Example 1399]
127	Cc1c(NC(=O)c2cc(C(N)=O)nc3ccc(N4CCN(C)CC4)cc23)c(C(F)(F)F)nn1Cc1ccc(C#N)cc1 [Example 1394]
119	Cc1c(NC(=O)c2cc(C(N)=O)nc3cc(F)ccc23)c(C(F)(F)F)nn1Cc1ccc(C(C)C)cc1 [Example 1406]
72.2	Cc1nn(Cc2cscn2)c(C)c1NC(=O)c1cc(C(N)=O)nc2ccccc12 [Example 1339]
60.7	CCc1nn(Cc2ccc(F)cc2)c(CC)c1NC(=O)c1cc(C(N)=O)nc2cc(F)ccc12 [Example 1385]
48.9	Cc1nc(Cn2nc(C)c(NC(=O)c3cc(C(F)(F)F)nc4ccc(Br)cc34)c2C)cs1 [Example 1354]
41.6	COc1ccc(CCn2nc(C)c(NC(=O)c3cc(C(F)(F)F)nc4ccc(Br)cc34)c2C)cc1 [Example 1350]
38.9	COc1ccc(CCn2nc(C)c(NC(=O)c3cc(C(N)=O)nc4ccccc34)c2C)cc1 [Example 1353]
38.1	COc1cc(C(=O)Nc2c(C(F)(F)F)nn(Cc3ccncc3)c2C)c2ccccc2n1 [Example 1366]
36.7	CCc1nn(Cc2ccc(F)cc2)c(CC)c1NC(=O)c1cc(C(N)=O)nc2ccccc12 [Example 1387]
35.1	COc1cc(C(=O)Nc2c(C)nn(Cc3ccc(C#N)cc3F)c2C)c2ccccc2n1 [Example 1352]
30.6	Cc1nn(Cc2ncccc2C#N)c(C)c1NC(=O)c1cc(C(N)=O)nc2cccc(F)c12 [Example 1410]
29.3	Cc1c(NC(=O)c2cc(C(N)=O)nc3cc(F)c(Cl)cc23)c(C(F)(F)F)nn1Cc1ccncc1 [Example 1368]

IC50 [nM]	Structure (SMILES)
28.7	Cc1c(NC(=O)c2cc(C(N)=O)nc3ccccc23)c(C(F)(F)F)nn1Cc1ccc(C(C)C)cc1 [Example 1407]
26.5	Cc1nn(Cc2cnn(C)c2C)c(C)c1NC(=O)c1cc(C(F)(F)F)nc2ccc(Br)cc12 [Example 1342]
26.3	Cc1c(NC(=O)c2cc(C(F)(F)F)nc3ccc(Br)cc23)c(C#N)nn1Cc1ccc(F)cc1 [Example 1338]
22	COc1cc(C(=O)Nc2c(C(F)(F)F)nn(Cc3ccc(C#N)cc3F)c2C)c2ccccc2n1 [Example 1359]
18.9	COc1cc(C(=O)Nc2c(C(F)(F)F)nn(Cc3ccc(C#N)cc3)c2C)c2cc(F)ccc2n1 [Example 1376]
15.5	Cc1c(NC(=O)c2cc(C(N)=O)nc3cc(F)ccc23)c(C(F)(F)F)nn1Cc1ncccc1C#N [Example 1392]
15.1	COc1cc(C(=O)Nc2c(C)nn(C(C)c3ccc(F)cc3)c2C)c2ccccc2n1 (stereo not drawn) [Example 1375]
15	Cc1c(NC(=O)c2cc(C(N)=O)nc3ccccc23)c(C(F)(F)F)nn1Cc1ncccc1C#N [Example 1393]
13.6	CCc1nn(Cc2ccc(F)cc2)c(CC)c1NC(=O)c1cc(C(N)=O)nc2cc(F)c(Cl)cc12 [Example 1386]
12.6	Cc1c(NC(=O)c2cc(C(N)=O)nc3cccc(F)c23)c(C(F)(F)F)nn1Cc1ncccc1C#N [Example 1395]
11.1	Cc1nn(Cc2ncccc2C#N)c(C)c1NC(=O)c1cc(C(N)=O)nc2cc(F)ccc12 [Example 1409]
10.6	COc1ccc(CCn2nc(C)c(NC(=O)c3cc(C(N)=O)nc4cc(F)c(Cl)cc34)c2C)cc1 [Example 1346]
8.2	Cc1nn(Cc2ccc(C(C)C)cc2)c(C)c1NC(=O)c1cc(C(N)=O)nc2ccccc12 [Example 1405]
7.5	Cc1nn(Cc2ccc(C#N)cc2F)c(C)c1NC(=O)c1cc(C(F)(F)F)nc2ccc(Br)cc12 [Example 1349]
4.9	Cc1nn(Cc2ncccc2C#N)c(C)c1NC(=O)c1cc(C(N)=O)nc2ccc(Br)cc12 [Example 1408]
4.6	Cc1c(NC(=O)c2cc(C(N)=O)nc3cc(F)ccc23)c(C(F)(F)F)nn1Cc1ccc(F)c(F)c1 [Example 1396]
4.3	Cc1c(NC(=O)c2cc(C(F)(F)F)nc3ccc(Br)cc23)c(C(F)(F)F)nn1Cc1ccc(C#N)cc1F [Example 1358]
3.8	Cc1nn(Cc2ccc(C(C)C)cc2)c(C)c1NC(=O)c1cc(C(N)=O)nc2cc(F)ccc12 [Example 1404]
1.7	Cc1ccc2nc(C(N)=O)cc(C(=O)Nc3c(C)nn(Cc4ccc(F)cc4)c3C)c2c1 [Example 1377]

— patent publication US20170037028A1 (BAYER PHARMA AKTIENGESELLSCHAFT, priority 2013, published 2017)
